Measurements reported in patent US20200002432A1, “ANTI-CD98 ANTIBODIES AND ANTIBODY DRUG CONJUGATES” (AbbVie Inc., priority 2016, published 2020).

What was measured:
[1] = test system: A549-FP3 human lung carcinoma xenograft; experiment: A549 FP3 xenograft tumor growth inhibition in SCID-bg mice, with or without docetaxel; format: in vivo, mouse; details: QD × 1, Ab095 8 mg/kg IP, docetaxel 7.5 mg/kg IV, ADC 10 mg/kg IP, combination 7.5 + 10
Experimental: (§1) The cell lines A549 and NCI-H460 were obtained from the American Type Culture Collection (ATCC, Manassas, Va.). A549 cell line was further passaged in mice as flank xenograft to improve xenograft tumor growth, resulting in the A549-FP3 line. Cells were cultured as monolayers in RPMI-1640 culture media (Invitrogen, Carlsbad, Calif.) supplemented with 10% Fetal Bovine Serum (FBS, Hyclone, Logan, Utah). To generate xenografts, 5×10^6 (A549 and NCI-H460) viable cells were inoculated subcutaneously into the right flank of immune deficient female SCID-bg mice (Charles River Laboratories, Wilmington, Mass.). The injection volume was 0.2 ml and composed of 1:1 S-MEM:Matrigel Matrigel (BD, Franklin Lakes, N.J.). Tumors were size matched at approximately 223 mm^3. Antibodies, conjugates, and docetaxel were formulated in 0.9% sodium chloride for injection. […] Therapy began within 24 hours after size matching of the tumors. Mice weighed approximately 21 g at the onset of therapy. Tumor volume was estimated two to three times weekly. Measurements of the length (L) and width (W) of the tumor were taken via electronic caliper and the volume was calculated according to the following equation: V=L×W^2/2. […] Eight mice were housed per cage. […] Tumor growth inhibition is calculated by 100*(1−Tv/Cv) where Tv and Cv are the mean tumor volumes of the treated and control groups, respectively.

[2] = test system: NCI-H460 human lung carcinoma xenograft; experiment: NCI-H460 xenograft tumor growth inhibition in SCID-bg mice, with or without docetaxel; format: in vivo, mouse; details: QD × 1, Ab095 8 mg/kg IP, docetaxel 7.5 mg/kg IV, ADC 10 mg/kg IP, combination 7.5 + 10
Experimental: as §1

## CC(=O)O[C@@]12CO[C@@H]1C[C@H](O)[C@@]1(C)C(=O)[C@H](O)C3=C(C)[C@@H](OC(=O)[C@H](O)[C@@H](NC(=O)OC(C)(C)C)c4ccccc4)C[C@@](O)([C@@H](OC(=O)c4ccccc4)[C@H]21)C3(C)C [Docetaxel, reference compound]
[1]
  TGD (%): 80%
  TGImax (%): 62%
[2]
  TGD (%): 30%
  TGImax (%): 35%
